According to patent US12583861B2, “Derivatives of imidazo[4,5-d]pyridazine, their preparation and their therapeutic application” (SANOFI, priority 2021, dated 2026):
Where a name gives a salt, the structure may show the parent alone.

Key:
human TLR7 = molecular target: T1, human TLR7 (Homo sapiens, UniProt Q9NYK1); test: HEK-Blue hTLR7 reporter cell assay (SEAP, NF-kB/AP-1) for stimulation of human TLR7; type: cell-based; conditions: HEK-Blue hTLR7 cells, 24 h incubation, SEAP readout; read-out: TLR7_EC50
T1 construct: host or cells: HEK293 (HEK-Blue hTLR7)
T1 sequence (Q9NYK1 27-1049): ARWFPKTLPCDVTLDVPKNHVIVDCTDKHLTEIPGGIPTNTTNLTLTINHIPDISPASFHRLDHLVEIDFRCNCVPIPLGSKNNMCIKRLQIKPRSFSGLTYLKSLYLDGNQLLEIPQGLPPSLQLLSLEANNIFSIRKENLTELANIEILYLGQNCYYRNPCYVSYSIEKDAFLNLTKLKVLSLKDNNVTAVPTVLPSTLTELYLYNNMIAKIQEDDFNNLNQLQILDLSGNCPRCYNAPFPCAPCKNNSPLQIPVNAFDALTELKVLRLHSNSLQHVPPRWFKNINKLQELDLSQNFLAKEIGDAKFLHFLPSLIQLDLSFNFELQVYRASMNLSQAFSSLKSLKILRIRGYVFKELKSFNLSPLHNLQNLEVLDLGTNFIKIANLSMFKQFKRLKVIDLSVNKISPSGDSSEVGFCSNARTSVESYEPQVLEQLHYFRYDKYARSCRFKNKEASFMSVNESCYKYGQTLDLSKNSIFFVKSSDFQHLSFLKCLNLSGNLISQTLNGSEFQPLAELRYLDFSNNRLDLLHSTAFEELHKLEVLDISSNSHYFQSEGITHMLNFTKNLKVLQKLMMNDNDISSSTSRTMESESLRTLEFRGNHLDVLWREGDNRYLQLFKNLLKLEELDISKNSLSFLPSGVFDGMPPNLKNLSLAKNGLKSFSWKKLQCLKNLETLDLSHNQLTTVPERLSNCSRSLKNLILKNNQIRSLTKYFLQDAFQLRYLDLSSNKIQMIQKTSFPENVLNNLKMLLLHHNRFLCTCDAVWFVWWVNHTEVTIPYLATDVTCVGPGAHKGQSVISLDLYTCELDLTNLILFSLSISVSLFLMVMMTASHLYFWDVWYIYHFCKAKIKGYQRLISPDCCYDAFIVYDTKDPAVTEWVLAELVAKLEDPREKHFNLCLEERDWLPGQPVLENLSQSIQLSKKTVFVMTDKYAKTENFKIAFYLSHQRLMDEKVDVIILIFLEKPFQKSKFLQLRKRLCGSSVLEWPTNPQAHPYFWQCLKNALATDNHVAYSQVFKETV
Protocol: (§1) The below tests, involving measuring the in vitro activity of some compounds of the disclosure on TLR7 and TLR8, were carried out using the HEK-Blue™ cells as reporter.
The activity described below, with respect to TLR7, TLR8, IFN-α2a, IL-6, IL29 and TNF-α, is given by the half maximal effective concentration (EC50), which corresponds to the concentration required to obtain a 50% of the activation. The lower the EC50, the less the concentration of the compound is required to produce 50% of maximum activation and the higher the potency.
(§2) In Vitro Assay for Studying the Stimulation of Human TLR7 and TLR8:
(§3) HEK-Blue™ hTLR7 Cells (#hkb-htlr7) and HEK-Blue™ hTLR8 Cells (#hkb-htlr8) from InvivoGen were used according to the manufacturer's instructions. These Reporter HEK293 cells were obtained by co-transfection of the hTLR7 or TLR8 gene and an optimized Secreted Embryonic Alkaline Phosphatase (SEAP) reporter gene which is placed under the control of the IFN-β minimal promoter fused to five NF-κB and AP-1-binding sites. Stimulation with a TLR7/8 ligand activates NF-kB and AP-1 which induce the production of SEAP. The cells are seeded in 96-well plate at 3.10E4 cells/well and incubated 18 to 24 h at 37° C., 5% CO2 before adding the compounds to evaluate. The cells are subsequently incubated with 3-fold serial dilutions of each of the compounds (0.01 to 20 μM) for 24 hours at 37° C., 5% CO2. Next, 20 μL of the supernatant is harvested and incubated with 200 μL of QUANTI-Blue™ Solution.

human TLR8 = molecular target: T2, human TLR8 (Homo sapiens, UniProt Q9NR97); test: HEK-Blue hTLR8 reporter cell assay (SEAP, NF-kB/AP-1) for stimulation of human TLR8; type: cell-based; conditions: HEK-Blue hTLR8 cells, 24 h incubation, SEAP readout; read-out: TLR8_EC50
T2 construct: host or cells: HEK293 (HEK-Blue hTLR8)
T2 sequence (Q9NR97 27-1041): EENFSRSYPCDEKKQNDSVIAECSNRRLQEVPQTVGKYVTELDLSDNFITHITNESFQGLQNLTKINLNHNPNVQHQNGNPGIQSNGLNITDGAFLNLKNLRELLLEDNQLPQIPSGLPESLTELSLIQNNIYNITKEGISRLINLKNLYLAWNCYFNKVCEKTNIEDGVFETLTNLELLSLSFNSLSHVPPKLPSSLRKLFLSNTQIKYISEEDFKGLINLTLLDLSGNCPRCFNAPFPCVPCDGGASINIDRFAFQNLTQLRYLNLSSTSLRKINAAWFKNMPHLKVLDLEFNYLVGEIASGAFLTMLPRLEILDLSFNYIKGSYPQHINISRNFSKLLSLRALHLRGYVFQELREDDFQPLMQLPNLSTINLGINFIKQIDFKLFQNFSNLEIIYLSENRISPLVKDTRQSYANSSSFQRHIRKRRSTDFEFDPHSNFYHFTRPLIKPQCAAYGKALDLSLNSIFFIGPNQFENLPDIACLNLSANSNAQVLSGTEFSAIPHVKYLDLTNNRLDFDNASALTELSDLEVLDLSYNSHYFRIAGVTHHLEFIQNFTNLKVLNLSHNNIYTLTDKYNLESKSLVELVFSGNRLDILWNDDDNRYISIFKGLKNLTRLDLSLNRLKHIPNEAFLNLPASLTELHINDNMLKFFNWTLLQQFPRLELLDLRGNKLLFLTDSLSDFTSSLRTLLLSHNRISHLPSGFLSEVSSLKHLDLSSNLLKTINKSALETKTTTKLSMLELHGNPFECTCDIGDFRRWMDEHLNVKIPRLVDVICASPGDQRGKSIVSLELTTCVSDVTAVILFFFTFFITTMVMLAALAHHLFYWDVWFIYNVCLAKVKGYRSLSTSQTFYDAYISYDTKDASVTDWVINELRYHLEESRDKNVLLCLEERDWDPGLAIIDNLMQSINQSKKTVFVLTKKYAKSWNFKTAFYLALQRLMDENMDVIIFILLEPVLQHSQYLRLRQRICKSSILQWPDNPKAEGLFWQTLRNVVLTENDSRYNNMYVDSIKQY
Protocol: as §1, §2
as §3, with “The cells are subsequently incubated with 3-fold serial dilutions of each of the compounds (0.01 to 20 μM) for 24 hours at 37° C., 5% CO2.” left out

CCCCc1nc2c(N)nnc(-c3ccco3)c2n1Cc1ccc(OC)cc1 [Compound 55, 2-butyl-7-(furan-2-yl)-1-(4-methoxybenzyl)-1H-imidazo[4,5-d]pyridazine-4-amine] was tested, and the EC50 (human TLR7) was 1.57 µM and the EC50 (human TLR8) was greater than 20 µM.

Compound CCCCc1nc2c(N)nnc(OC3CCOC3)c2n1Cc1ccc(OC)cc1 (stereo not drawn) [Compound 56, 2-butyl-1-(4-methoxybenzyl)-7-((tetrahydrofuran-3-yl)oxy)-1H-imidazo[4,5-d]pyridazin-4-amine] has an EC50 (human TLR7) of 0.231 µM and an EC50 (human TLR8) greater than 20 µM.

Compound CCCCc1nc2c(N)nnc(OC3CCOCC3)c2n1Cc1ccc(OC)cc1 [Compound 57, 2-butyl-1-(4-methoxybenzyl)-7-((tetrahydro-2H-pyran-4-yl)oxy)-1H-imidazo[4,5-d]pyridazin-4-amine] has an EC50 (human TLR7) of 0.344 µM and an EC50 (human TLR8) greater than 20 µM.

In the case of CCCCc1nc2c(N)nnc(OC3CCSC3)c2n1Cc1ccc(OC)cc1 (stereo not drawn) [Compound 58, 2-butyl-1-(4-methoxybenzyl)-7-((tetrahydrothiophen-3-yl)oxy)-1H-imidazo[4,5-d]pyridazin-4-amine], the EC50 (human TLR7) is reported as 0.433 µM and the EC50 (human TLR8) is reported as greater than 20 µM.

In the case of CCCCc1nc2c(N)nnc(C3CCOC3)c2n1Cc1ccc(OC)cc1 (stereo not drawn) [Compound 59, 2-butyl-1-(4-methoxybenzyl)-7-(tetrahydrofuran-3-yl)-1H-imidazo[4,5-d]pyridazin-4-amine], the EC50 (human TLR7) is reported as 0.943 µM and the EC50 (human TLR8) is reported as greater than 20 µM.

With CCCCc1nc2c(N)nnc(C=C(C)C)c2n1Cc1ccc(OC)cc1 [Compound 60, 2-butyl-1-(4-methoxybenzyl)-7-(2-methylprop-1-en-1-yl)-1H-imidazo[4,5-d]pyridazin-4-amine] the EC50 (human TLR7) was 0.813 µM and the EC50 (human TLR8) was greater than 20 µM.

Work on CCCCc1nc2c(N)nnc(CC(C)C)c2n1Cc1ccc(OC)cc1 [Compound 61, 2-butyl-7-isobutyl-1-(4-methoxybenzyl)-1H-imidazo[4,5-d]pyridazin-4-amine] yielded an EC50 (human TLR7) of 1.18 µM and an EC50 (human TLR8) greater than 20 µM.

With CCCCc1nc2c(N)nnc(-c3ccsc3)c2n1Cc1ccc(OC)cc1 [Compound 62, 2-butyl-1-(4-methoxybenzyl)-7-(thiophen-3-yl)-1H-imidazo[4,5-d]pyridazin-4-amine] the EC50 (human TLR7) was 0.771 µM and the EC50 (human TLR8) was greater than 20 µM.

With CCCCc1nc2c(N)nnc(-c3cccs3)c2n1Cc1ccc(OC)cc1 [Compound 63, 2-butyl-1-(4-methoxybenzyl)-7-(thiophen-2-yl)-1H-imidazo[4,5-d]pyridazin-4-amine] the EC50 (human TLR7) was 1.18 µM and the EC50 (human TLR8) was greater than 20 µM.

Compound CCCCc1nc2c(N)nnc(-c3ccc[nH]3)c2n1Cc1ccc(OC)cc1 [Compound 64, 2-butyl-1-(4-methoxybenzyl)-7-(1H-pyrrol-2-yl)-1H-imidazo[4,5-d]pyridazin-4-amine hydrochloride] has an EC50 (human TLR7) of 3.1 µM and an EC50 (human TLR8) greater than 20 µM.

CCCCc1nc2c(N)nnc(C3=CCCCC3)c2n1Cc1ccc(OC)cc1 [Compound 66, 2-butyl-7-(cyclohex-1-en-1-yl)-1-(4-methoxybenzyl)-1H-imidazo[4,5-d]pyridazin-4-amine] was tested, and the EC50 (human TLR7) was 2.88 µM and the EC50 (human TLR8) was greater than 20 µM.

Work on CCCCc1nc2c(N)nnc(-c3ccoc3)c2n1Cc1ccc(OC)cc1 [Compound 67, 2-butyl-7-(furan-3-yl)-1-(4-methoxybenzyl)-1H-imidazo[4,5-d]pyridazin-4-amine] yielded an EC50 (human TLR7) of 2.06 µM and an EC50 (human TLR8) greater than 20 µM.

Work on CCCCc1nc2c(N)nnc(OC3CCS(=O)(=O)C3)c2n1Cc1ccc(OC)cc1 (stereo not drawn) [Compound 68, 3-((4-amino-2-butyl-1-(4-methoxybenzyl)-1H-imidazo[4,5-d]pyridazin-7-yl)oxy)tetrahydrothiophene 1,1-dioxide] yielded an EC50 (human TLR7) of 4.77 µM and an EC50 (human TLR8) greater than 20 µM.

CCCCc1nc2c(N)nnc(-c3cccn3C)c2n1Cc1ccc(OC)cc1 [Compound 70, 2-butyl-1-(4-methoxybenzyl)-7-(1-methyl-1H-pyrrol-2-yl)-1H-imidazo[4,5-d]pyridazin-4-amine hydrochloride] showed an EC50 (human TLR7) of 4 µM and an EC50 (human TLR8) greater than 20 µM.

CCCCc1nc2c(N)nnc(Oc3ccccc3)c2n1Cc1ccc(OC)cc1 [Compound 72, 2-butyl-1-(4-methoxybenzyl)-7-phenoxy-1H-imidazo[4,5-d]pyridazin-4-amine] gave an EC50 (human TLR7) of 3.76 µM and an EC50 (human TLR8) greater than 20 µM.
